The values below are quoted from earlier work in US5516921A, “Thiono-lactone inhibitors of protein trafficking and uses therefor” (Ariad Pharmaceuticals, Inc., priority 1994, dated 1996).

A value given as a limit tells only on which side of the number the result lay.

Data set [1] relates to β-COP.
For data set [2] the following is noted: in vivo.

Consider `C[C@H]1CCC/C=C/[C@@H]2C[C@H](O)C[C@H]2[C@H](O)/C=C/C(=O)O1` [BFA, Brefeldin A], for which the “time at which release of β-COP from the Golgi is complete” value in data set [1] (complete release after BFA treatment) is 1 to 2 min. The “time at which release of β-COP from the Golgi occurs after treatment” value in data set [1] (onset of release after BFA treatment) was no more than 20 s. The biological half-life result in data set [2] is “short”.
